Test [1] has as its target Endothelial PAS domain-containing protein 1 (Homo sapiens) (UniProt Q99814). The test can be described thus: potency against HIF reporters across cell lines – luminescence, panel, selectivity assay for HIF-2a inhibitor project, dose response (AID 651581). The note with it: human cell HIF reporter.
In test [2] the target is Hypoxia-inducible factor 1-alpha (Homo sapiens) (UniProt Q16665). The test is described as above. The note with it: human cell HIF reporter, HIF-1a.
Sequence of Hypoxia-inducible factor 1-alpha (Homo sapiens) (Q16665 whole entry, looked up): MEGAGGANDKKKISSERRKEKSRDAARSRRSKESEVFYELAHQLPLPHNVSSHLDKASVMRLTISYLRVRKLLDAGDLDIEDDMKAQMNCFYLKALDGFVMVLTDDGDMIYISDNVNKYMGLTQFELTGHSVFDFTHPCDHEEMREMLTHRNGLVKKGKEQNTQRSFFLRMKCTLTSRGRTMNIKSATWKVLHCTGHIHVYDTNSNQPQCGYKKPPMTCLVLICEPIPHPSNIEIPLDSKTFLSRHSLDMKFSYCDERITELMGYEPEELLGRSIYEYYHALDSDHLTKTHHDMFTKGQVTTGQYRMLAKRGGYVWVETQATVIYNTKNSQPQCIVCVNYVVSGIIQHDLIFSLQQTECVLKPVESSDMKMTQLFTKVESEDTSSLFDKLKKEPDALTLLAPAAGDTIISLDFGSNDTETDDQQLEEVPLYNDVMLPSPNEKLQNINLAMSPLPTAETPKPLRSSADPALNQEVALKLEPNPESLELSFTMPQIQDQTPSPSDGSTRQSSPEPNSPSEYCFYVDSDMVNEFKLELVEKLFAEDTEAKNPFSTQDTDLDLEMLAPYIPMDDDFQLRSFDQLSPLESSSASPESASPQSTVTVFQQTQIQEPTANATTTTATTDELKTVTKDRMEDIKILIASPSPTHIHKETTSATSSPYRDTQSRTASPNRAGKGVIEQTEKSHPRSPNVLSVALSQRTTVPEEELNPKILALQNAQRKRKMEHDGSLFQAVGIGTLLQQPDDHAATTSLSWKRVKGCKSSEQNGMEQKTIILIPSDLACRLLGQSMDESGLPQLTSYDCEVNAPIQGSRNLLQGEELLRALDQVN

The source made the active and inactive calls. No rule for the calls is given here.

These results are taken from PubChem BioAssay AID651581 (Sanford-Burnham Center for Chemical Genomics, 2012).

As usually defined, the IC50 is the concentration that inhibits the measured activity by half.

For `Cc1c(CCC(=O)O)c(=O)oc2cc(OCc3ccccc3Br)ccc12`, the IC50 in test [1] (HIF-2a PANC, mean of runs) is 5.79 µM; in test [1] (HIF-2a PANC, run 1), 2.48 µM; in test [1] (HIF-2a PANC, run 2), 9.09 µM; in test [1] (HIF-2a, mean of runs), 6.3 µM; in test [1] (HIF-2a, run 1) it was 6.05 µM; in test [1] (HIF-2a, run 2) it was 6.54 µM. In addition, the half-maximal inhibitory concentration (IC50) is 8.16 µM in test [2] (run 1) and 20.8 µM in test [2] (run 2). For the same compound, the IC50 result in test [2] (mean of runs) is “inactive”.
`Cc1nc(SCc2cccc(C(=O)O)c2)nc2c1CCCC2`: in test [1] (HIF-2a PANC, mean of runs), the IC50 entry is “inactive”. Moreover, the IC50 is 7.09 µM in test [1] (HIF-2a PANC, run 1); 65.6 µM in test [1] (HIF-2a PANC, run 2); 1.05 µM in test [1] (HIF-2a, mean of runs); 1.28 µM in test [1] (HIF-2a, run 1); 0.826 µM in test [1] (HIF-2a, run 2); 10.5 µM in test [2] (mean of runs). For the same compound, the results for the IC50 in test [2] (run 1) and in test [2] (run 2) were 3.9 µM and 17 µM, respectively.
Regarding `CCOC(=O)c1cc(-c2csc(-c3ccc(C(C)(C)C)cc3)n2)on1`, the IC50 in test [1] (HIF-2a PANC, mean of runs) was > 99 µM (inactive); in test [1] (HIF-2a PANC, run 1), more than 99 µM; in test [1] (HIF-2a PANC, run 2), more than 99 µM; in test [1] (HIF-2a, mean of runs), 4.82 µM; in test [1] (HIF-2a, run 1), 4.83 µM; in test [1] (HIF-2a, run 2) it was 4.81 µM. Also, the results for the IC50 in test [2] (mean of runs), in test [2] (run 1) and in test [2] (run 2) were 55.7 µM, 68.5 µM and 42.9 µM, respectively.
Take `COc1ccc(CNC(=O)c2nc(S(=O)(=O)Cc3ccccc3)ncc2Cl)cc1`: the IC50 result in test [1] (HIF-2a PANC, mean of runs) is “inactive”. The half-inhibitory concentration (IC50) in test [1] (HIF-2a PANC, run 1) was 29.8 µM; in test [1] (HIF-2a PANC, run 2), 31.1 µM; in test [1] (HIF-2a, mean of runs), 8.83 µM; in test [1] (HIF-2a, run 1), 8.77 µM; in test [1] (HIF-2a, run 2), 8.9 µM; in test [2] (mean of runs) it was 27 µM. The 50% inhibitory concentration (IC50) in test [2] (run 1) came out at 28.1 µM; in test [2] (run 2) it was 26 µM.
In the case of `O=C(O)c1ccc2nc(-c3ccccc3)sc2c1`, the IC50 in test [1] (HIF-2a PANC, mean of runs) is 11.4 µM; in test [1] (HIF-2a PANC, run 1), 12.7 µM; in test [1] (HIF-2a PANC, run 2), 10.2 µM; in test [1] (HIF-2a, run 1) it was less than 30 µM; in test [1] (HIF-2a, run 2), more than 99 µM; in test [2] (run 1), 26.6 µM. This compound also came in with a concentration for half-maximal inhibition (IC50) in test [2] (run 2) of 22.9 µM. Besides, in test [2] (mean of runs), the IC50 entry is “inactive”.
As for `COc1ccc(OCc2cccc(C(=O)NN)c2)cc1`, the IC50 in test [1] (HIF-2a PANC, mean of runs) is > 99 µM (inactive); in test [1] (HIF-2a PANC, run 1), more than 99 µM; in test [1] (HIF-2a PANC, run 2), more than 99 µM; in test [1] (HIF-2a, mean of runs), 7.89 µM; in test [1] (HIF-2a, run 1), 7.68 µM; in test [1] (HIF-2a, run 2), 8.1 µM. Also, the half-maximal inhibitory concentration (IC50) in test [2] (run 1) and in test [2] (run 2) was more than 99 µM each time.
Turning to `CCOC(=O)Cc1csc(NC(=S)NC(=O)c2ccccc2)n1`, the IC50 in test [1] (HIF-2a PANC, run 1) was 41 µM; in test [1] (HIF-2a PANC, run 2) it was less than 10 µM; in test [1] (HIF-2a, mean of runs), 3.69 µM; in test [1] (HIF-2a, run 1) it was 3.72 µM; in test [1] (HIF-2a, run 2), 3.66 µM; in test [2] (mean of runs) it was 22.1 µM. In addition, the IC50 in test [2] (run 1) was 23.3 µM; in test [2] (run 2) it was 20.9 µM.
For `CCOC(=O)c1sc(NC(=O)c2cc3c(s2)CCC(C)C3)nc1C` (centres undefined), the half-maximal inhibitory concentration (IC50) in test [1] (HIF-2a PANC, run 1) is less than 1 µM; in test [1] (HIF-2a PANC, run 2), more than 99 µM; in test [1] (HIF-2a, run 1), 0.2 µM; in test [1] (HIF-2a, run 2), more than 99 µM; in test [2] (run 1) it was 20.5 µM; in test [2] (run 2), more than 99 µM.
Regarding `CCOC(=O)Cn1cc(/C=C/[N+](=O)[O-])c2ccccc21`, the IC50 in test [1] (HIF-2a PANC, mean of runs) is > 99 µM (inactive); in test [1] (HIF-2a PANC, run 1), more than 99 µM; in test [1] (HIF-2a PANC, run 2) it was more than 99 µM; in test [1] (HIF-2a, run 1), 13.5 µM; in test [1] (HIF-2a, run 2) it was 13.2 µM; in test [2] (run 1), 17.7 µM. Moreover, in test [2] (run 2), the IC50 came out at 25 µM. Also, the IC50 entry in test [1] (HIF-2a, mean of runs) is “inactive”; in test [2] (mean of runs), “inactive”.
For `Cc1c(CCC(=O)N2CCC[C@H]2C(=O)O)c(=O)oc2cc3oc4c(c3cc12)CCCC4`, the 50% inhibitory concentration (IC50) in test [1] (HIF-2a PANC, mean of runs) is 1.12 µM; in test [1] (HIF-2a PANC, run 1), 1.11 µM; in test [1] (HIF-2a PANC, run 2), 1.12 µM; in test [1] (HIF-2a, mean of runs), 0.512 µM; in test [1] (HIF-2a, run 1), 0.451 µM; in test [1] (HIF-2a, run 2), 0.574 µM. The IC50 in test [2] (run 1) was determined as 0.824 µM; in test [2] (run 2), 1.53 µM. The IC50 result in test [2] (mean of runs) was “inactive”.
As for `O=C(Nc1ccc(NC(=O)c2ccco2)cc1)c1ccc2c(c1)OCCO2`, the IC50 in test [1] (HIF-2a PANC, mean of runs) is 11.2 µM; in test [1] (HIF-2a PANC, run 1) it was 10.1 µM; in test [1] (HIF-2a PANC, run 2) it was 12.4 µM; in test [1] (HIF-2a, mean of runs), 7.76 µM; in test [1] (HIF-2a, run 1) it was 8.03 µM; in test [1] (HIF-2a, run 2) it was 7.48 µM. Also, the results for the IC50 in test [2] (run 1) and in test [2] (run 2) were more than 99 µM and 86 µM, respectively.
Consider `CC(=O)Nc1ccc(Oc2sc(C(=O)c3ccccc3)c(N)c2C#N)cc1`, for which the IC50 result in test [1] (HIF-2a PANC, mean of runs) is “inactive”; in test [1] (HIF-2a, mean of runs), “inactive”; in test [2] (mean of runs), “inactive”. Moreover, the IC50 was 47.2 µM in test [1] (HIF-2a PANC, run 1); 65.4 µM in test [1] (HIF-2a PANC, run 2); 17.5 µM in test [1] (HIF-2a, run 1); 10.9 µM in test [1] (HIF-2a, run 2); 27.7 µM in test [2] (run 1); 28.5 µM in test [2] (run 2).
As to `Cc1nc(SCCC(=O)O)c2cc(-c3ccccc3)sc2n1`, in test [1] (HIF-2a PANC, mean of runs), the IC50 result is “inactive”. Moreover, the concentration for half-maximal inhibition (IC50) in test [1] (HIF-2a PANC, run 1) is 1.02 µM; in test [1] (HIF-2a PANC, run 2) it was 1.53 µM; in test [1] (HIF-2a, mean of runs) it was 0.212 µM; in test [1] (HIF-2a, run 1) it was 0.196 µM; in test [1] (HIF-2a, run 2) it was 0.228 µM; in test [2] (run 1), more than 99 µM. This compound gave a 50% inhibitory concentration (IC50) in test [2] (run 2) of 1.56 µM.
